# From patent publication US9174964B2, “AMPK-activating piperidinyloxy-substituted 2,3-dihydro-1H-indene-1-amine compounds and pharmaceutical compositions including the same” (Rigel Pharmaceuticals, Inc., priority 2007, dated 2015)
# Counter-ions that a name gives are not always drawn.
# Biological target: AMPK
# Assay: AMPK activation, enzyme-linked immunosorbent assay
# Assay type: biochemical
# Conditions: Table 2, AMPK activation, ELISA
row,Compound,EC50
1,"O=C(NC1CN(Cc2ccncc2)C1)c1ccc(OC2CCN(c3ccc(C(F)(F)F)cc3)CC2)cn1 [Compound 42, N-(1-(pyridin-4-ylmethyl)azetidin-3-yl)-5-(1-(4-(trifluoromethyl)phenyl)piperidin-4-yloxy)picolinamide]",1 to 5 µM
2,"N#Cc1ccc(CN2CCC(NC(=O)c3ccnc(OC4CCN(c5ccc(C(F)(F)F)cc5)CC4)c3)CC2)cc1 [Compound 21, N-(1-(4-cyanobenzyl)piperidin-4-yl)-2-(1-(4-(trifluoromethyl)phenyl)piperidin-4-yloxy)isonicotinamide]",0.1 to 0.5 µM
3,"O=C(NCCCNCc1ccncc1)c1ccc(OC2CCN(c3ccc(C(F)(F)F)cc3)CC2)cn1 [Compound 50, N-(3-(pyridin-4-ylmethylamino)propyl)-5-(1-(4-(trifluoromethyl)phenyl)piperidin-4-yloxy)picolinamide]",1 to 5 µM
4,"O=C(NC1CCN(CCc2ccccc2)CC1)c1ccc(OC2CCN(c3ccc(C(F)(F)F)cc3)CC2)cn1 [Compound 36, N-(1-phenethylpiperidin-4-yl)-5-(1-(4-(trifluoromethyl)phenyl)piperidin-4-yloxy)picolinamide]",0.5 to 1 µM
5,"COC(=O)c1ccc(CN2CCC(NC(=O)c3ccc(OC4CCN(c5ccc(C#N)cc5)CC4)cn3)CC2)cc1 [Compound 7, methyl 4-((4-(5-(1-(4-cyanophenyl)piperidin-4-yloxy)picolinamido)piperidin-1-yl)methyl)benzoate]",< 0.1 µM
6,"N#Cc1ccc(CN2CCC(NC(=O)c3ccc(OC4CCN(c5ccc(C(F)(F)F)cc5)CC4)cn3)CC2)cc1 [Compound 4, N-(1-(4-cyanobenzyl)piperidin-4-yl)-5-(1-(4-(trifluoromethyl)phenyl)piperidin-4-yloxy)picolinamide]",< 0.1 µM
7,"O=C(NC1CCN(Cc2cccnc2)CC1)c1cncc(OC2CCN(c3ccc(C(F)(F)F)cc3)CC2)c1 [Compound 18, N-(1-(pyridin-3-ylmethyl)piperidin-4-yl)-5-(1-(4-(trifluoromethyl)phenyl)piperidin-4-yloxy)nicotinamide]",< 0.1 µM
8,"O=C(NC1CCN(Cc2ccccc2)CC1)c1ccc(OC2CCN(c3ccc(C(F)(F)F)cc3)CC2)cn1 [Compound 38, N-(1-benzylpiperidin-4-yl)-5-(1-(4-(trifluoromethyl)phenyl)piperidin-4-yloxy)picolinamide]",1 to 5 µM
9,"O=C(NC1CCN(Cc2ccncc2)CC1)c1ccc(OC2CCN(c3ccc(C(F)(F)F)cc3)CC2)nc1 [Compound 10, N-(1-(pyridin-4-ylmethyl)piperidin-4-yl)-6-(1-(4-(trifluoromethyl)phenyl)piperidin-4-yloxy)nicotinamide]",< 0.1 µM

# Same assay, conditions: Table 3, AMPK activation, ELISA
row,Compound,EC50
1,"O=C(c1ccc(F)cc1)N1CCC(NS(=O)(=O)c2ccc(OC3CCN(c4ccc(C(F)(F)F)cc4)CC3)nc2)CC1 [Compound 60, N-(1-(4-fluorobenzoyl)piperidin-4-yl)-6-(1-(4-(trifluoromethyl)phenyl)piperidin-4-yloxy)pyridine-3-sulfonamide]",> 50 µM
2,"CC(C)(C)OC(=O)N1CCC(NS(=O)(=O)c2ccc(OC3CCN(c4ccc(C(F)(F)F)cc4)CC3)nc2)CC1 [Compound 54, tert-butyl 4-(6-(1-(4-(trifluoromethyl)phenyl)piperidin-4-yloxy)pyridine-3-sulfonamido)piperidine-1-carboxylate]",1 to 5 µM

# Same assay, conditions: Table 4, AMPK activation, ELISA
row,Compound,EC50
1,"Cc1c(C(=O)NC2CCN(Cc3ccncc3)CC2)oc2cc(OC3CCN(c4ccc(C(F)(F)F)cc4)CC3)ccc12 [Compound 65, 3-methyl-N-(1-(pyridin-4-ylmethyl)piperidin-4-yl)-6-(1-(4-(trifluoromethyl)phenyl)piperidin-4-yloxy)benzofuran-2-carboxamide]",< 0.1 µM
2,"CN(C(=O)c1cc2cc(OC3CCN(c4ccc(C(F)(F)F)cc4)CC3)ccc2o1)C1CCN(Cc2ccccn2)CC1 [Compound 117, N-methyl-N-(1-(pyridin-2-ylmethyl)piperidin-4-yl)-5-(1-(4-(trifluoromethyl)phenyl)piperidin-4-yloxy)benzofuran-2-carboxamide]",< 0.1 µM
3,"N#Cc1ccc(N2CCC(Oc3ccc4oc(C(=O)NC5CCN(Cc6ccccc6)CC5)cc4c3)CC2)cc1 [Compound 71, N-(1-benzylpiperidin-4-yl)-5-(1-(4-cyanophenyl)piperidin-4-yloxy)benzofuran-2-carboxamide formate salt]",< 0.1 µM
4,"O=C(NC1CCN(Cc2ccccc2)CC1)c1cc2cc(OC3CCN(c4ccc(C(F)(F)F)cc4)CC3)ccc2o1 [Compound 75, N-(1-benzylpiperidin-4-yl)-5-(1-(4-(trifluoromethyl)phenyl)piperidin-4-yloxy)benzofuran-2-carboxamide]",< 0.1 µM
5,"CN(C(=O)c1cc2cc(OC3CCN(c4ccc(C(F)(F)F)cc4)CC3)ccc2o1)C1CCN(C(=O)c2ccncc2)CC1 [Compound 118, N-(1-isonicotinoylpiperidin-4-yl)-N-methyl-5-(1-(4-(trifluoromethyl)phenyl)piperidin-4-yloxy)benzofuran-2-carboxamide]",0.1 to 0.5 µM
6,"Cc1c(C(=O)NC2CCN(C(=O)OC(C)(C)C)CC2)oc2cc(OC3CCN(c4ccc(C(F)(F)F)cc4)CC3)ccc12 [Compound 61, tert-butyl 4-(3-methyl-6-(1-(4-(trifluoromethyl)phenyl)piperidin-4-yloxy)benzofuran-2-carboxamido)piperidine-1-carboxylate]",0.1 to 0.5 µM
7,"O=C(N[C@H]1CCN(Cc2ccncc2)C1)c1cc2cc(OC3CCN(Cc4ccc(Cl)cc4)CC3)ccc2o1 [Compound 129, (S)-5-(1-(4-chlorobenzyl)piperidin-4-yloxy)-N-(1-(pyridin-4-ylmethyl)pyrrolidin-3-yl)benzofuran-2-carboxamide]",1 to 10 µM
8,"CN(C(=O)c1cc2cc(OC3CCN(c4ccc(C(F)(F)F)cc4)CC3)ccc2o1)C1CCN(Cc2ccc(C(F)(F)F)cc2)CC1 [Compound 119, N-methyl-N-(1-(4-(trifluoromethyl)benzyl)piperidin-4-yl)-5-(1-(4-(trifluoromethyl)phenyl)piperidin-4-yloxy)benzofuran-2-carboxamide]",< 0.1 µM

# Same assay, conditions: Table 4, AMPK activation, ELISA; formate salt
row,Compound,EC50
1,"O=C(NC1CCN(Cc2ccncc2)CC1)c1cc2cc(OC3CCN(c4ccc(C(F)(F)F)cc4)CC3)ccc2o1 [Compound 105, N-(1-(pyridin-4-ylmethyl)piperidin-4-yl)-5-(1-(4-(trifluoromethyl)phenyl)piperidin-4-yloxy)benzofuran-2-carboxamide, formate salt]",< 0.1 µM

# Same assay, conditions: Table 5, AMPK activation, ELISA
row,Compound,EC50
1,"O=C(NC1CCNCC1)c1cc2cc(OC3CCN(c4ccc(C(F)(F)F)cc4)CC3)ccc2s1 [Compound 150, N-(piperidin-4-yl)-5-(1-(4-(trifluoromethyl)phenyl)piperidin-4-yloxy)benzo[b]thiophene-2-carboxamide]",1 to 50 µM
2,"CC(C)(C)OC(=O)N1CCC(NC(=O)c2sc3cc(OC4CCN(c5ccc(C(F)(F)F)cc5)CC4)ccc3c2Cl)CC1 [Compound 147, tert-butyl 4-(3-chloro-6-(1-(4-(trifluoromethyl)phenyl)piperidin-4-yloxy)benzo[b]thiophene-2-carboxamido)piperidine-1-carboxylate]",1 to 50 µM

# Same assay, conditions: Table 6, AMPK activation, ELISA
row,Compound,EC50
1,"FC(F)(F)c1ccc(N2CCC(Oc3ccc4c(c3)CCC4NC3CCN(Cc4ccncc4)CC3)CC2)cc1 (centres unmarked) [Compound 158, 1-(pyridin-4-ylmethyl)-N-(5-(1-(4-(trifluoromethyl)phenyl)piperidin-4-yloxy)-2,3-dihydro-1H-inden-1-yl)piperidin-4-amine]",0.5 to 1 µM
